Measured values from patent US20230089368A1, “POLYAROMATIC UREA DERIVATIVES AND THEIR USE IN THE TREATMENT OF MUSCLE DISEASES” (ANAGENESIS BIOTECHNOLOGIES S.A.S., priority 2019, published 2023).
Structures can show the parent of a compound that is named as a salt. Where two headings read alike, the source gives them in different places.

Assays:
[1] = system: muscle progenitors (hMP) from DMD hiPSC or WT hiPSC; test: Myotube assay: myogenic activity (total myotube area per well); assay type: cell-based, human; conditions: for Emax: read-out: MA (normalized Myotube Area, efficacy)
Method: An in vitro assay for assessing the efficacy of compounds for use in treating, ameliorating, delaying, curing and/or preventing a disease or condition associated with muscle cells and/or satellite cells is described in example 78. Herein, the generation of myotubes and satellite cells after adding a compound to a myotube assay workflow is assessed. Said myotube assay workflow is derived from wild-type or DMD human induced pluripotent stem cells (WT hiPSC or DMD hiPSC). Before the addition of said compound, the assay comprises satellite-like cells, but no significant amount of myotubes.
(§1) The efficacy of said compound for use in treating, ameliorating, delaying, curing and/or preventing a disease or condition associated with muscle cells and/or satellite cells is positively correlated with the generation of myotubes (i.e. the increase of the area occupied by myotubes on the assay) and/or satellite cells (i.e. the increase of the number of satellite cells) in the assay after adding said compound. The generation of myotubes by the addition of said compound is expressed as the EC50 value, the concentration of said compound that corresponds with the half-maximal generation of myotubes, and the MA (normalized myotube area) value, the normalized area occupied by generated myotubes on the assay. […] Since muscle cells are formed from myotubes during myogenesis, the generation of myotubes in the assay is a good indicator of the ability of said compound to induce the formation of functional muscle cells in vivo. The number of satellite cells is measured as the percentage of Pax7 positive cells, relative to the total number of cells in the assay, as shown in FIG. 3. The percentage of Pax7 is a good indicator of the ability of said compound to induce the formation of satellite cells which are able to play a role in muscle repair and regeneration in vivo.
(§2) DMD human induced pluripotent stem cells (hereafter “DMD hiPSC”), generated from the NORM-1 hiPSC WT cell line by gene editing, or WT human induced pluripotent stem cells (hereafter “WT hiPSC”), being NORM-1 hiPSC wt cell line, have been differentiated according to Chal et al. 2015, 2016, to produce muscle progenitors (hereafter “hMP”). The hMP population contains satellite-like cells (i.e Pax7-positive cells) and satellite cells' progenies (i.e. Myogenin-positive cells).
(§3) FIG. 1 provides an example of a Myotube assay workflow. At day 0, hMP are thawed and 3.1 million cells are plated into a T75-flask coated with hESC-qualified Matrigel™ (Corning) in SkGM proliferating medium (PromoCells), supplemented with 5 μM Y-27632 (Tocris Bioscience). On day 2, SkGM proliferating medium is refreshed. On day 4, hMP are harvested and transferred into a 384-well plate coated with collagen type I at a density of 3500 cells/well in a DMEM-based medium, containing 5% of knockout serum replacement (Gibco), 1% PenStrep (Gibco), 1% MEM NEAA (Gibco) and 0.1 mM 2-mercaptoethanol (Gibco) (hereafter “K5 medium”) and 5 μM Y-27632. Compounds to be tested are then added in the medium and incubated for 3 days at 37° C. On day 7, cells are fixed and immunostained. For example, myotubes (alpha-actinin staining) and satellite-like (Pax7 staining) cells can be analyzed for total myotube area per well or Pax7-positive cell quantification.
(§4) DMD hMP were put in the Myotube assay according to the workflow described in Example 2.1. In particular, compound (i) was added at concentrations ranging from 1.5 nM to 30 μM, starting from day 4. hMP were cultivated for three more days in presence of compound (i), then fixed and analyzed for quantification of total myotube area per well. Duplicates of each condition were averaged.
Qualitative scale: ++++: EC50<500 nM; +++: 500 nM≤EC50<1000 nM; ++: 1000 nM≤EC50<5000 nM; +: EC50≥5000 nM; +++: MA≥75%; ++: 50%≤MA<75%; +: 25%≤MA<50%.

[2] = system: satellite-like cells (Pax7-positive cells) in hMP; test: Myotube assay: Pax7-positive (satellite-like) cell quantification; assay type: cell-based, human; design: key to Pax7% (pool of Pax7-positive cells) / Pax7: −: Depletes the pool of cells, while positively affects the myotubes; +: Maintains or increases the pool of cells, with at least 1 of the highest concentration known to be cytotoxic; ++: Maintains or increases the pool of cells, without any toxicity; conditions: for Pax7% (pool of Pax7-positive cells): myotube assay, compounds incubated 3 days
Excerpt: as §1, §2, §3
as §4, with “percentage” for “quantification”, “Pax7-positive cells and nuclei number.” for “total myotube area per well.”
(−): Depletes the pool of cells, while positively affects the myotubes; (+): Maintains or increases the pool of cells, with at least 1 of the highest concentration known to be cytotoxic; and (++) Maintains or increases the pool of cells, without any toxicity.

[3] = Homo sapiens, 72 h, myotube assay, compounds incubated 3 days

Row | Compound | Emax [1, 3] [%] | Pax7% (pool of Pax7-positive cells) [2] | EC50 ([1]; Homo sapiens, 72 h, myotube assay, 10 points dose-response 1.5 nM to 30 μM, compounds incubated 3 days, read-out: EC50 (myogenic activity, half-maximal generation of myotubes)) [µM] | MA ([1]; comparative compounds, same assay, NA: non active) | EC50 ([1]; comparative compounds, same assay, NA: non active, read-out: EC50) [µM] | Pax7 ([2]; comparative compounds, same assay)
1 | CSc1cc(Oc2ccnc(N)c2)ccc1NC(=O)Nc1cc(C(C)(C)C)nn1-c1ccccc1.Cl [(bj), 1-(4-((2-aminopyridin-4-yl)oxy)-2-(methylthio)phenyl)-3-(3-(tert-butyl)-1-phenyl-1H-pyrazol-5-yl)urea hydrochloride] | ≥ 75 | ++ |  |  |  | 
2 | CC(C)(C)c1cc(NC(=O)Nc2ccc(Oc3ccnc4[nH]c(=O)cnc34)cc2F)n(CCN2CCOCC2)n1 [(k), 1-(3-(tert-butyl)-1-(2-morpholinoethyl)-1H-pyrazol-5-yl)-3-(2-fluoro-4-((3-oxo-3,4-dihydropyrido[2,3-b]pyrazin-8-yl)oxy)phenyl)urea] | 50 to 75 | ++ |  |  |  | 
3 | CSc1cc(Oc2ccnc(NCCN(C)C)c2)ccc1NC(=O)Nc1cc(C(C)(C)C)nn1-c1ccccc1 [(ck), 1-(3-(tert-butyl)-1-phenyl-1H-pyrazol-5-yl)-3-(4-((2-((2-(dimethylamino)ethyl)amino)pyridin-4-yl)oxy)-2-(methylthio)phenyl)urea Hydrochloride] | ≥ 75 | + |  |  |  | 
4 | CSc1cc(Oc2ccnc3[nH]c(=O)cnc23)ccc1NC(=O)Nc1cc(C(C)(C)C)nn1-c1ccc(C)c(C)c1 [(cd), 1-(3-(tert-butyl)-1-(3,4-dimethylphenyl)-1H-pyrazol-5-yl)-3-(2-(methylthio)-4-((3-oxo-3,4-dihydropyrido[2,3-b]pyrazin-8-yl)oxy)phenyl)urea] | ≥ 75 | ++ |  |  |  | 
5 | CSc1cc(Oc2ccnc3[nH]c(=O)cnc23)ccc1NC(=O)Nc1cc(C(C)(C)C)nn1-c1ccc2ncccc2c1 [(bm), 1-(3-(tert-butyl)-1-(quinolin-6-yl)-1H-pyrazol-5-yl)-3-(2-(methylthio)-4-((3-oxo-3,4-dihydropyrido[2,3-b]pyrazin-8-yl)oxy)phenyl)urea] | ≥ 75 | + |  |  |  | 
6 | Cc1cc(NC(=O)Nc2ccc(Oc3ccnc4[nH]c(=O)cnc34)cc2F)n(-c2ccccc2)n1 [(a), 1-(2-fluoro-4-((3-oxo-3,4-dihydropyrido[2,3-b]pyrazin-8-yl)oxy)phenyl)-3-(3-methyl-1-phenyl-1H-pyrazol-5-yl)urea] | 25 to 50 | ++ |  |  |  | 
7 | CC(C)(C)c1cc(NC(=O)Nc2ccc(Oc3ccnc4[nH]c(=O)cnc34)cc2C(F)(F)F)n(-c2ccccc2)n1 [(v), 1-(3-(tert-butyl)-1-phenyl-1H-pyrazol-5-yl)-3-(4-((3-oxo-3,4-dihydropyrido[2,3-b]pyrazin-8-yl)oxy)-2-(trifluoromethyl)phenyl)urea] | ≥ 75 | ++ |  |  |  | 
8 | CC(C)(C)c1nnc(NC(=O)Nc2ccc(Oc3ccnc4[nH]c(=O)cnc34)cc2F)s1 [(r), 1-(5-(tert-butyl)-1,3,4-thiadiazol-2-yl)-3-(2-fluoro-4-((3-oxo-3,4-dihydropyrido[2,3-b]pyrazin-8-yl)oxy)phenyl)urea] | ≥ 75 | ++ |  |  |  | 
9 | CSc1cc(Oc2ccnc3[nH]c(=O)cnc23)ccc1NC(=O)Nc1cc(C(C)(C)C)nn1CCN(C)C [(bg), 1-(3-(tert-butyl)-1-(2-(dimethylamino)ethyl)-1H-pyrazol-5-yl)-3-(2-(methylthio)-4-((3-oxo-3,4-dihydropyrido[2,3-b]pyrazin-8-yl)oxy)phenyl)urea] | ≥ 75 | ++ | ≥ 5 |  |  | 
10 | CC(C)(C)c1cc(NC(=O)Nc2ccc(Oc3ccnc4[nH]c(=O)cnc34)nc2)n(-c2ccccc2)n1 [(t), 1-(3-(tert-butyl)-1-phenyl-1H-pyrazol-5-yl)-3-(6-((3-oxo-3,4-dihydropyrido[2,3-b]pyrazin-8-yl)oxy)pyridin-3-yl)urea] | 25 to 50 | + |  |  |  | 
11 | CC(C)(C)c1cc(NC(=O)Nc2ccc(Oc3ccncc3)cc2)n(-c2ccccc2)n1 [(bl), 1-(3-(tert-butyl)-1-phenyl-1H-pyrazol-5-yl)-3-(4-(pyridin-4-yloxy)phenyl)urea] | 50 to 75 | + |  |  |  | 
12 | CC(C)(C)c1cc(NC(=O)Nc2ccc(Oc3ccnc4[nH]c(=O)cnc34)cc2F)n(-c2ccccc2)n1 [CCT196969] |  |  |  | ++ (50%≤MA<75%) | 0.5 to 1 | +
13 | CSc1cc(Oc2ccnc3[nH]c(=O)ccc23)ccc1NC(=O)Nc1cc(C(C)(C)C)nn1-c1ccccc1 [(do), 1-(3-(tert-butyl)-1-phenyl-1H-pyrazol-5-yl)-3-(2-(methylthio)-4-((7-oxo-7,8-dihydro-1,8-naphthyridin-4-yl)oxy)phenyl)urea] | ≥ 75 | + |  |  |  | 
14 | CSc1cc(Oc2ccnc3[nH]c(=O)[nH]c23)ccc1NC(=O)Nc1cc(C(C)(C)C)nn1-c1ccccc1 [(dm), 1-(3-(tert-butyl)-1-phenyl-1H-pyrazol-5-yl)-3-(2-(methylthio)-4-((2-oxo-2,3-dihydro-1H-imidazo[4,5-b]pyridin-7-yl)oxy)phenyl)urea] | ≥ 75 | − |  |  |  | 
15 | CSc1cc(Oc2ccnc3[nH]c(=O)cnc23)ccc1NC(=O)Nc1cc(C(C)(C)C)nn1-c1ccc(OCCN2CCCCC2)cc1 [(ce), 1-(3-(tert-butyl)-1-(4-(2-(piperidin-1-yl)ethoxy)phenyl)-1H-pyrazol-5-yl)-3-(2-(methylthio)-4-((3-oxo-3,4-dihydropyrido[2,3-b]pyrazin-8-yl)oxy)phenyl)urea] | ≥ 75 | + |  |  |  | 
16 | CCOC(=O)Nc1cc(Oc2ccc(NC(=O)Nc3cc(C(C)(C)C)no3)c(SC)c2)ccn1 [(de), Ethyl (4-(4-(3-(3-(tert-butyl)isoxazol-5-yl)ureido)-3-(methylthio)phenoxy)pyridin-2-yl)carbamate] | ≥ 75 | + |  |  |  | 
17 | CSc1cc(Oc2ccnc3c2CCC(=O)N3)ccc1NC(=O)Nc1cc(C(C)(C)C)no1 [(cz), 1-(3-(tert-butyl)isoxazol-5-yl)-3-(2-(methylthio)-4-((7-oxo-5,6,7,8-tetrahydro-1,8-naphthyridin-4-yl)oxy)phenyl)urea] | ≥ 75 | + |  |  |  | 
18 | CSc1cc(Oc2ccnc3c2ncc(=O)n3C)ccc1NC(=O)Nc1cc(C(C)(C)C)nn1-c1ccccc1 [(au), 1-(3-(tert-butyl)-1-phenyl-1H-pyrazol-5-yl)-3-(4-((4-methyl-3-oxo-3,4-dihydropyrido[2,3-b]pyrazin-8-yl)oxy)-2-(methylthio)phenyl)urea] | ≥ 75 | ++ |  |  |  | 
19 | CCOC(=O)Nc1cc(Oc2ccc(NC(=O)Nc3ncc(C(C)(C)C)s3)c(SC)c2)ccn1 [(df), Ethyl (4-(4-(3-(5-(tert-butyl)thiazol-2-yl)ureido)-3-(methylthio)phenoxy)pyridin-2-yl)carbamate] | ≥ 75 | + |  |  |  | 
